The values below come from patent publication US12473326B2, “Crystalline forms of dexamethasone dimers and uses thereof” (Ripple Therapeutics Corporation, priority 2019, dated 2025).

Series [1] is described as follows: Drug release from heat-molded glassy pellets in PBS, 1% FBS in PBS or 100% FBS at 37° C. (HPLC). Format: physicochemical. The settings on record: heat-molded pellets in the glassy state, about 1 mm x 1 mm.
Method: Heat-molded pellets from Compound 1 (˜1 mm×1 mm) were then placed in 20 mL glass vials and 2 mL of release buffer (either 100% phosphate buffered saline (PBS), 1% fetal bovine serum (FBS) in PBS, or 100% FBS) was added. Samples were incubated at 37° C. on a shaker rotating at 115 rpm. After 1 day, 3 days, 7 days, and subsequently in alternating 3 and 4 day intervals (i.e., 1, 3, 7, 10, 14 days etc.), release buffer was sampled directly (PBS) or syringe filtered, proteins were precipitated with acetonitrile, and drug release products were extracted. The samples were analyzed by high performance liquid chromatography (HPLC) to quantify drug products.
The nature of series [2]: Drug release from crystalline powders suspended in PBS with 50% FBS, quantified by HPLC over time. Format: physicochemical. The settings on record: crystalline powder suspended in PBS with 50% FBS, FIG. 12. From the text:
FIG. 12 is a graph depicting the release of Compound 1 from crystalline powders suspended in phosphate buffered saline (PBS) with 50% fetal bovine serum (FBS). The release of Compound 1 from the different crystalline forms was quantified by HPLC over time as described in Example 10.
Form I/II (mixture) and Form IV of Compound 1 were formed from acetonitrile and ethanol respectively. The crystalline powders were suspended in phosphate buffered saline (PBS) with 50% fetal bovine serum (FBS) and drug release from the different forms was quantified by HPLC over time (see FIG. 12).

Series [3] is classed as physicochemical. As to conditions: for thermodynamic stability of polymorph: solid form, comparison among observed polymorphs; for interconversion into other polymorphs: under the conditions tested. The text has this: Thus, Form IV in solid form has the advantage of longer-term shelf life without interconversion into another crystalline form.
The nature of series [4]: Solubility in organic solvents. The series is classed as physicochemical. The text has this: This observation has implications for coating applications as making high concentration coating solutions (e.g., for coating a surface by dip coating or spray coating a solution of Compound 1 onto the surface) will be much more practical from Form II than from Form IV.
Series [5] is described as follows: Solubility in 90% acetonitrile-10% water as a function of temperature. Format: physicochemical. The settings on record: Form II vs Form IV, FIG. 15. As for the experimental part: FIG. 15 is a graph depicting the difference in the solubilities (mg/mi) of Form II and Form IV in […] as a function of temperature.
The solubility of Form II and Form IV were measured in 90% acetonitrile-10% water as a function of temperature (see FIG. 15).

The nature of series [6]: Differential scanning calorimetry (behaviour on heating). Format: physicochemical. The settings on record: DSC, FIG. 14. (In general: In DSC, transitions show as peaks or steps in heat flow.)

As to `C[C@@H]1C[C@H]2[C@@H]3CCC4=CC(=O)C=C[C@]4(C)[C@@]3(F)[C@@H](O)C[C@]2(C)[C@@]1(O)C(=O)COC(=O)OCCOCCOCCOC(=O)OCC(=O)[C@@]1(O)[C@H](C)C[C@H]2[C@@H]3CCC4=CC(=O)C=C[C@]4(C)[C@@]3(F)[C@@H](O)C[C@@]21C` [Compound 1, dexamethasone-triethylene glycol-dexamethasone], in series [1], the “mechanism of drug release from pellet” value is recorded as “Release Drug Through Surface Erosion from an Intact Pellet”.
Turning to `C[C@@H]1C[C@H]2[C@@H]3CCC4=CC(=O)C=C[C@]4(C)[C@@]3(F)[C@@H](O)C[C@]2(C)[C@@]1(O)C(=O)COC(=O)OCCOCCOCCOC(=O)OCC(=O)[C@@]1(O)[C@H](C)C[C@H]2[C@@H]3CCC4=CC(=O)C=C[C@]4(C)[C@@]3(F)[C@@H](O)C[C@@]21C` [Form I/II], in series [2], the “drug release from the crystalline form over time” value was “faster release compared to Form IV”.
Take `C[C@@H]1C[C@H]2[C@@H]3CCC4=CC(=O)C=C[C@]4(C)[C@@]3(F)[C@@H](O)C[C@]2(C)[C@@]1(O)C(=O)COC(=O)OCCOCCOCCOC(=O)OCC(=O)[C@@]1(O)[C@H](C)C[C@H]2[C@@H]3CCC4=CC(=O)C=C[C@]4(C)[C@@]3(F)[C@@H](O)C[C@@]21C` [Form II]: in series [3], the “thermodynamic stability of polymorph” value is given as “high thermodynamic stability” and the “interconversion into other polymorphs” value is recorded as “not observed to convert to Form IV”. Further, the “solubility in organic solvents, comparison in words” value in series [4] (Form II vs Form IV) is reported as “much more soluble in organic solvents than Form IV”. Moreover, the “solubility as a function of temperature” value in series [5] is listed as “higher solubility”.
For the molecule `C[C@@H]1C[C@H]2[C@@H]3CCC4=CC(=O)C=C[C@]4(C)[C@@]3(F)[C@@H](O)C[C@]2(C)[C@@]1(O)C(=O)COC(=O)OCCOCCOCCOC(=O)OCC(=O)[C@@]1(O)[C@H](C)C[C@H]2[C@@H]3CCC4=CC(=O)C=C[C@]4(C)[C@@]3(F)[C@@H](O)C[C@@]21C` [Form IV], the “drug release from the crystalline form over time” value in series [2] is “slower dissolution”. Also, in series [3], the “thermodynamic stability of polymorph” value is “most thermodynamically stable polymorph observed” and the “interconversion into other polymorphs” value is recorded as “not seen to convert into any other polymorphs”. Moreover, the “solubility in organic solvents relative to Form II” value in series [4] (acetonitrile, ethanol, tetrahydrofuran, 2-methyl tetrahydrofuran, isobutyl acetate, acetone, butyl acetate, ethyl acetate, isopropyl acetate, methanol) is “ca. 10 fold”. The “behaviour on heating (thermal stability)” value in series [6] is given as “decomposes on heating”.
Take `C[C@@H]1C[C@H]2[C@@H]3CCC4=CC(=O)C=C[C@]4(C)[C@@]3(F)[C@@H](O)C[C@]2(C)[C@@]1(O)C(=O)COC(=O)OCCOCCOCCOC(=O)OCC(=O)[C@@]1(O)[C@H](C)C[C@H]2[C@@H]3CCC4=CC(=O)C=C[C@]4(C)[C@@]3(F)[C@@H](O)C[C@@]21C` [Form VIII]: the “conversion to another form by PXRD” value in series [3] (after 14 days at room temperature and/or cooling at 0° C. for 14 days) is listed as “conversion to Form IV”.
